From patent US5298502A, “Method and composition for photodynamic treatment and detection of tumors” (priority 1991, dated 1994)

test system: chondrosarcoma; test: Photodynamic treatment of chondrosarcoma in rats fed the agent (Example 9); type: in vivo, Sprague-Dawley rats; conditions: three rats, 2000 ppm in feed for 6 days, 630 nm light 270 J/cm^2
Description: Specifically, three Sprague-Dawley rats of average weight 120 g were placed on a diet of feed containing 2000 ppm of the agent for a period of 6 days. On day 3, chondrosarcoma was implanted into the right hind limb of each rat by injecting 0.3 mL of a suspension of the tumor cells (about one million tumor cells). On day 6 the right hind limb of each rat was shaven and depilated, the size of each tumor was measured, and the tumor area and surrounding skin were then exposed to non-thermal doses of 630 nm light for a total of 270 J/cm^2.
In another set of experiments, 20 of the rats were placed on the same diet as above (i.e. feed containing 2000 ppm of agent), provided ad libitum, for 10 days before the treatment with the light, and the injection of the tumor cell suspension was made after the animals had been on the diet for 7 days. Such an injection causes the formation of a tumor having a well defined vascular network within 1 to 2 days. At the time of the treatment with light the tumors had diameters of 5-8 mm and were free of evident necrosis.

Structure (SMILES)	tumor regression on the day after light treatment
CS(=O)(=O)NC(=O)c1cc(Oc2ccc(C(F)(F)F)cc2Cl)ccc1[N+](=O)[O-] [Compound 8c]	did not produce any regression of the tumors

test system: mosquito larvae; test: Insecticidal test against mosquito larvae; conditions: in vivo

Structure (SMILES)	activity against mosquito larvae
CCOC(=O)C(Cl)Cc1cc(-n2nc(C)n(C(F)F)c2=O)c(F)cc1Cl (centres unmarked)	active
CCS(=O)(=O)Nc1cc(-n2nnn(CCCF)c2=O)c(F)cc1Cl [Compound 8h]	active
CCOC(=O)C(C)Oc1ccc(Oc2cc(-n3nc(C)n(C(F)F)c3=O)c(F)cc2Cl)cc1 (centres unmarked) [Agent 6a]	active

test system: DBA/2 Ha mice with SMT-F subcutaneous tumors; test: Proto IX content of tissues of tumor-bearing mice fed the agent (Example 6); type: in vivo; conditions: 2000 ppm in feed
Description: In this Example the enzyme-inhibiting agents were added to the feed of tumor-bearing mice; for some of the mice, used as a control, no agent was added to the feed. The mice were then sacrificed and their kidneys, intestines, adrenal glands, liver and tumor were removed and analyzed for their content of Proto IX. The following enzyme-inhibiting agents were employed: [drawing 10]
More particularly, the mice were DBA/2 Ha mice which had been injected with SMT-F subcutaneous tumors on Day 0 in the right shoulder. The mice, individually housed, received untreated Purina Rodent Chow 5001 Mash on Day 1; thereafter on Days 2 through 10 the mice received the same Mash treated with 2000 ppm of the inhibiting agent being tested (or, for the controls, the same untreated Mash). The treatment of the Mash was effected by blending it with a small amount of an acetone solution of the agent to be tested. The mice were then sacrificed on Day 10, except for the mouse treated with the agent designated as 6j; the latter was sacrificed on Day 7. The tissues were refrigerated at 4° C. overnight, then blotted dry, and the fresh weight of each tissue sample was recorded. The tissues were then homogenized in 5 mL, or lo mL in the cases of intestines and liver, of acetone-0.1 N NH4 OH (9:I, v/v). The homogenates were then centrifuged at 1500 g and the supernatants were analyzed on a SPEX FAII2 spectrofluorometer; excitation 400 nm, emission 630 nm wavelengths, the optima for Proto IX. Proto IX accumulation was determined as CPS (fluorescent counts per second emitted) per gram of tissue. The results are tabulated below (results are averages for two mice for each treatment, except for treatments with agents 6f, 6h, 6i and 6j in each of which only one mouse was treated): […]

Structure (SMILES)	concentration of Proto IX in tissue, Adrenal	concentration of Proto IX in tissue, Intestine	concentration of Proto IX in tissue, Kidneys	concentration of Proto IX in tissue, Liver	concentration of Proto IX in tissue, Tumor
C#CCN1C(=O)C(F)Oc2cc(F)c(-n3nc(C)n(C(F)F)c3=O)cc21 (centres unmarked) [Agent 6g]	18 ug of Proto IX per gram of tis	4 ug of Proto IX per gram of tis	6 ug of Proto IX per gram of tis	7 ug of Proto IX per gram of tis	2 ug of Proto IX per gram of tis
C#CCN1C(=O)COc2cc(F)c(-n3nc4c(c3Cl)CCCC4)cc21 [Agent 6i]	337 ug of Proto IX per gram of tis	32 ug of Proto IX per gram of tis	37 ug of Proto IX per gram of tis	14 ug of Proto IX per gram of tis	9 ug of Proto IX per gram of tis
COC(=O)c1cc(Oc2ccc(C(F)(F)F)cc2Cl)ccc1[N+](=O)[O-] [Agent 6b]	23 ug of Proto IX per gram of tis	51 ug of Proto IX per gram of tis	22 ug of Proto IX per gram of tis	12 ug of Proto IX per gram of tis	14 ug of Proto IX per gram of tis
CC(C)Oc1cc(-n2c(=O)n3n(c2=O)CCCC3)c(F)cc1Cl [Agent 6h]	21 ug of Proto IX per gram of tis	5 ug of Proto IX per gram of tis	5 ug of Proto IX per gram of tis	8 ug of Proto IX per gram of tis	3 ug of Proto IX per gram of tis
CCCn1c(=O)ccc2cc(F)c(-n3nc(C)n(C(F)F)c3=O)cc21 [Agent 6f]	51 ug of Proto IX per gram of tis	11 ug of Proto IX per gram of tis	6 ug of Proto IX per gram of tis	11 ug of Proto IX per gram of tis	4 ug of Proto IX per gram of tis
C#CCN1C(=O)COc2cc(F)c(N=c3sc(=S)n4n3CCCC4)cc21 [Agent 6j]	4 ug of Proto IX per gram of tis	5 ug of Proto IX per gram of tis	3 ug of Proto IX per gram of tis	5 ug of Proto IX per gram of tis	11 ug of Proto IX per gram of tis
CCOC(=O)C(C)Oc1ccc(Oc2cc(-n3nc(C)n(C(F)F)c3=O)c(F)cc2Cl)cc1 (centres unmarked) [Agent 6a]	60 ug of Proto IX per gram of tis	54 ug of Proto IX per gram of tis	99 ug of Proto IX per gram of tis	39 ug of Proto IX per gram of tis	11 ug of Proto IX per gram of tis

same assay, conditions: 2000 ppm in feed Days 2-10, sacrificed Day 10 (6j Day 7)

Structure (SMILES)	Proto IX Mean Cps per gram, Adrenal [Cps per gram × 10^3]	Proto IX Mean Cps per gram, Kidneys [Cps per gram × 10^3]	Proto IX Mean Cps per gram, Liver [Cps per gram × 10^3]	Proto IX Mean Cps per gram, Tumor [Cps per gram × 10^3]	Weight of Tumor as excised [mg]
C#CCN1C(=O)C(F)Oc2cc(F)c(-n3nc(C)n(C(F)F)c3=O)cc21 (centres unmarked) [Agent 6g]	1984	606	803	166	250
C#CCN1C(=O)COc2cc(F)c(-n3nc4c(c3Cl)CCCC4)cc21 [Agent 6i]	36940	4014	1510	932	20
COC(=O)c1cc(Oc2ccc(C(F)(F)F)cc2Cl)ccc1[N+](=O)[O-] [Agent 6b]	2529	2441	1261	1520	90
CC(C)Oc1cc(-n2c(=O)n3n(c2=O)CCCC3)c(F)cc1Cl [Agent 6h]	2259	585	914	298	192
CCCn1c(=O)ccc2cc(F)c(-n3nc(C)n(C(F)F)c3=O)cc21 [Agent 6f]	5611	661	1170	449	69
C#CCN1C(=O)COc2cc(F)c(N=c3sc(=S)n4n3CCCC4)cc21 [Agent 6j]	491	315	538	1251	11
CCOC(=O)C(C)Oc1ccc(Oc2cc(-n3nc(C)n(C(F)F)c3=O)c(F)cc2Cl)cc1 (centres unmarked) [Agent 6a]	6572	10817	4291	1203	143

same assay, conditions: 2000 ppm in feed; samples diluted with 3 parts basic acetone to one part sample

Structure (SMILES)	Proto IX Mean Cps per gram, Intestine [Cps per gram × 10^3]
COC(=O)c1cc(Oc2ccc(C(F)(F)F)cc2Cl)ccc1[N+](=O)[O-] [Agent 6b]	5577
CCOC(=O)C(C)Oc1ccc(Oc2cc(-n3nc(C)n(C(F)F)c3=O)c(F)cc2Cl)cc1 (centres unmarked) [Agent 6a]	5870

same assay, conditions: 2000 ppm in feed; undiluted samples (6j Day 7)

Structure (SMILES)	Proto IX Mean Cps per gram, Intestine [Cps per gram × 10^3]
C#CCN1C(=O)C(F)Oc2cc(F)c(-n3nc(C)n(C(F)F)c3=O)cc21 (centres unmarked) [Agent 6g]	466
C#CCN1C(=O)COc2cc(F)c(-n3nc4c(c3Cl)CCCC4)cc21 [Agent 6i]	3454
CC(C)Oc1cc(-n2c(=O)n3n(c2=O)CCCC3)c(F)cc1Cl [Agent 6h]	584
CCCn1c(=O)ccc2cc(F)c(-n3nc(C)n(C(F)F)c3=O)cc21 [Agent 6f]	1157
C#CCN1C(=O)COc2cc(F)c(N=c3sc(=S)n4n3CCCC4)cc21 [Agent 6j]	572

test system: HeLa cells; test: Proto IX in HeLa cells and culture medium, cell growth observations (Example 8); type: cell-based, human; conditions: 100 μM agent
Description: In a manner similar to Examples 1 and 2, cultures of HeLa cells were incubated in the presence of 100 μM of various treating agents, listed below. The agent was added in dilute solution in dimethylsulfoxide (DMSO),and the controls contained 0.2% DMSO v/v. After such incubation the culture medium was poured off, removing it from the cells, the cells were loosened from the culture flasks by addition of 0.25% W/v trypsin Which remained in contact With the cells for 20 minutes at 37° C., after which a fluorometric medium was added to the flask. The fluorometric medium was the same as that described in Example 7 except that its pH was 6.5; this medium also acted as an extractant. The resulting extract was analyzed for proto IX content. The separated culture medium was also analyzed fluorometrically for Proto IX content. The pairs of percentages given, next to each treating agent, indicate the amount of Proto IX produced in the presence of that treating agent relative to the amount produced by the control in the same experiment; the first number of each pair relates to the concentration of Proto IX in the culture medium and the second number relates to the concentration in the cells. [drawing 12]

Structure (SMILES)	activity in the test in Example 8 (Proto IX production)
CS(=O)(=O)NC(=O)c1cc(Oc2ccc(C(F)(F)F)cc2Cl)ccc1[N+](=O)[O-] [Compound 8c]	much less active than compound 6c

test system: HeLa cells; test: Proto IX production in HeLa cells, extract of cells alone (Example 7); type: cell-based; conditions: Homo sapiens, 100 uM agent, first formula (background-subtracted), read-out: increase in the amount of Proto IX relative to the control
Description: In a series of experiments along the lines of Examples 1 and 2, cultures of HeLa cells were incubated in the presence of 100 uM of various treating agents, listed below. The percentage given, next to each treating agent, indicates the increase in the amount of Proto IX produced in the presence of that treating agent relative to the amount produced by the control in the same experiment.
As in Examples 1 and 2, the data for this Example 7 were based on measurements of fluorescence (e.g. in counts per second, "cps"). In this Example, however, the measurements were made on an extract of the cells alone (in contrast to Examples 1 and 2 in which the disrupted cells and culture medium together were extracted), the fluorometric medium was the one described in Example 5 (containing 1% Tween-20, 50 mM Tris-HCl, 1 mM EDTA and 1 mM dithioerythritol, pH 8.5), and a cps measurement of the fluorometric medium per se was also made. In calculating the foregoing data for this Example, the following formula was used to calculate the percentage increases: [formula] where Ca is the counts per second for the sample resulting from treatment with the agent, Cc is the counts per second for the control sample, and Cm is the counts per second for the fluorometric medium per se (i.e. the background fluoroescence). On reviewing the data it was observed that Cc -Cm for this set of experiments was […] compared to Cm; for instance, individual measured values were 49025 and 52069 for Cc and 4295 for Cm. […] Accordingly, the data were recalculated using the formula: [formula] with the following results: 6a 336%; 5b 148%; 6c 154%; 6d 510%; 6e 320%; 6f 280%; 6g 329%; 6h 178%; 6i 171%; 6j 185%; 7a 118%; 7b 142%; 7c 103%; 7d 128%; 7e 173%; 7f 118%; 7q 155%; 7h 118%.

Structure (SMILES)	activation at 100 µM [%]
C#CCN1C(=O)C(F)Oc2cc(F)c(-n3nc(C)n(C(F)F)c3=O)cc21 (centres unmarked) [Agent 6g]	326
C#CCN1C(=O)COc2cc(F)c(-n3nc4c(c3Cl)CCCC4)cc21 [Agent 6i]	544
COC(=O)c1cc(Oc2ccc(C(F)(F)F)cc2Cl)ccc1[N+](=O)[O-] [Agent 6b]	366
CC(C)Oc1cc(-n2c(=O)n3n(c2=O)CCCC3)c(F)cc1Cl [Agent 6h]	431
CCCn1c(=O)ccc2cc(F)c(-n3nc(C)n(C(F)F)c3=O)cc21 [Agent 6f]	280
C#CCN1C(=O)COc2cc(F)c(N=c3sc(=S)n4n3CCCC4)cc21 [Agent 6j]	469
CCOC(=O)C(C)Oc1ccc(Oc2cc(-n3nc(C)n(C(F)F)c3=O)c(F)cc2Cl)cc1 (centres unmarked) [Agent 6a]	337
